Reference: patent publication US9902711B2, “Piperidine compounds having multimodal activity against pain” (LABORATORIOS DEL DR. ESTEVE S.A., priority 2013, dated 2018)
pKi: −log10 of the molar value.

The compounds below were run against human σ1 receptor and human μ-opioid receptor (assay: Human σ1 receptor radioligand assay and human μ-opioid receptor radioligand assay (results reported only as combined μ and σ1 dual binding)). Details: Ki at human σ1 receptor (HEK-293 membranes, [3H](+)-pentazocine) and human μ-opioid receptor (CHO-K1 membranes, [3H]-DAMGO), one combined class.
Set-up: key to μ and σ1 dual binding: +: Both Ki-μ and Ki-σ1>=500 nM; ++: One Ki<500 nM while the other Ki is >=500 nM; +++: Both Ki-μ and Ki-σ1<500 nM; ++++: Both Ki-μ and Ki-σ1<100 nM
Method: To investigate binding properties of σ1 receptor ligands to human σ1 receptor, transfected HEK-293 membranes and [^3H](+)-pentazocine (Perkin Elmer, NET-1056), as the radioligand, were used. The assay was carried out with 7 μg of membrane suspension, 5 nM of [^3H](+)-pentazocine in either absence or presence of either buffer or 10 μM Haloperidol for total and non-specific binding, respectively. Binding buffer contained Tris-HCl 50 mM at pH 8. Plates were incubated at 37° C. for 120 minutes. After the incubation period, the reaction mix was then transferred to MultiScreen HTS, FC plates (Millipore), filtered and plates were washed 3 times with ice-cold 10 mM Tris-HCL (pH7.4). Filters were dried and counted at approximately 40% efficiency in a MicroBeta scintillation counter (Perkin-Elmer) using EcoScint liquid scintillation cocktail
To investigate binding properties of μ-opioid receptor ligands to human μ-opioid receptor, transfected CHO-K1 cell membranes and [^3H]-DAMGO (Perkin Elmer, ES-542-C), as the radioligand, were used. The assay was carried out with 20 μg of membrane suspension, 1 nM of [^3H]-DAMGO in either absence or presence of either buffer or 10 μM Naloxone for total and non-specific binding, respectively. Binding buffer contained Tris-HCl 50 mM, MgCl2 5 mM at pH 7.4. Plates were incubated at 27° C. for 60 minutes. After the incubation period, the reaction mix was then transferred to MultiScreen HTS, FC plates (Millipore), filtered and plates were washed 3 times with ice-cold 10 mM Tris-HCL (pH 7.4). Filters were dried and counted at approximately 40% efficiency in a MicroBeta scintillation counter (Perkin-Elmer) using EcoScint liquid scintillation cocktail.

Compound	pKi	μ and σ1 dual binding
CCNC(=O)Oc1cccc(C2CCN(Cc3cn(-c4ccccc4)nn3)CC2)c1 [Example 1, 3-(1-((1-phenyl-1H-1,2,3-triazol-4-yl)methyl)piperidin-4-yl)phenyl ethylcarbamate]	> 6.30	–
COc1cccc(C2CCN(Cc3cn(-c4ccc(F)cc4)nn3)CC2)c1 [Example 2, 1-((1-(4-fluorophenyl)-1H-1,2,3-triazol-4-yl)methyl)-4-(3-methoxyphenyl)piperidine]	–	++
CC(=O)Oc1cccc(C2CCN(Cc3cn(Cc4ccccn4)nn3)CC2)c1 [Example 3, 3-(1-((1-(pyridin-2-ylmethyl)-1H-1,2,3-triazol-4-yl)methyl)piperidin-4-yl)phenyl acetate]	–	++
O=C(Nc1ccc(C(=O)O)cc1)Oc1cccc(C2CCN(Cc3cn(Cc4ccccn4)nn3)CC2)c1 [Example 4]	> 6.30	–
CC(C)C(=O)Oc1cccc(C2CCN(Cc3cn(Cc4ccccn4)nn3)CC2)c1 [Example 5, 3-(1-((1-(pyridin-2-ylmethyl)-1H-1,2,3-triazol-4-yl)methyl)piperidin-4-yl)phenyl isobutyrate]	> 6.30	–
CC(C)[C@H](N)C(=O)Oc1cccc(C2CCN(Cc3cn(Cc4ccccn4)nn3)CC2)c1 [Example 6, (S)-3-(1-((1-(pyridin-2-ylmethyl)-1H-1,2,3-triazol-4-yl)methyl)piperidin-4-yl)phenyl 2-amino-3-methylbutanoate]	> 6.30	–
COc1cccc(C2CCN(Cc3cn(-c4ccccc4)nn3)CC2)c1 [Example 7, 4-(3-methoxyphenyl)-1-((1-phenyl-1H-1,2,3-triazol-4-yl)methyl)piperidine]	> 6.30	–
CN(C)C(=O)Oc1cccc(C2CCN(Cc3cn(-c4ccccc4)nn3)CC2)c1 [Example 8, 3-(1-((1-phenyl-1H-1,2,3-triazol-4-yl)methyl)piperidin-4-yl)phenyl dimethylcarbamate]	> 6.30	–
CC(=O)Oc1cccc(C2CCN(Cc3cn(-c4ccccc4)nn3)CC2)c1 [Example 9, 3-(1-((1-phenyl-1H-1,2,3-triazol-4-yl)methyl)piperidin-4-yl)phenyl acetate]	> 7.00	–
COCCOc1cccc(C2CCN(Cc3cn(-c4ccccc4)nn3)CC2)c1 [Example 10, 4-(3-(2-methoxyethoxy)phenyl)-1-((1-phenyl-1H-1,2,3-triazol-4-yl)methyl)piperidine]	> 6.30	–
COCCCOc1cccc(C2CCN(Cc3cn(-c4ccccc4)nn3)CC2)c1 [Example 11, 4-(3-(3-methoxypropoxy)phenyl)-1-((1-phenyl-1H-1,2,3-triazol-4-yl)methyl)piperidine]	> 6.30	–
COc1cccc(C2CCN(Cc3cn(Cc4ccccn4)nn3)CC2)c1 [Example 12, 2-((4-((4-(3-methoxyphenyl)piperidin-1-yl)methyl)-1H-1,2,3-triazol-1-yl)methyl)pyridine]	–	++
CC(C)[C@H](NC(=O)Oc1cccc(C2CCN(Cc3cn(Cc4ccccn4)nn3)CC2)c1)C(=O)O [Example 13]	≤ 6.30	–
O=C(O)CNC(=O)Oc1cccc(C2CCN(Cc3cn(Cc4ccccn4)nn3)CC2)c1 [Example 14]	≤ 6.30	–
COc1cccc(C2CCN(Cc3cn(Cc4ncccc4F)nn3)CC2)c1 [Example 15, 3-fluoro-2-((4-((4-(3-methoxyphenyl)piperidin-1-yl)methyl)-1H-1,2,3-triazol-1-yl)methyl)pyridine]	–	++
COc1cccc(C2CCN(Cc3cn(Cc4ccc(F)cn4)nn3)CC2)c1 [Example 16, 5-fluoro-2-((4-((4-(3-methoxyphenyl)piperidin-1-yl)methyl)-1H-1,2,3-triazol-1-yl)methyl)pyridine]	–	++
COc1cccc(C2CCN(Cc3cn(C(CO)c4ccccc4)nn3)CC2)c1 (centres unmarked) [Example 17, 2-(4-((4-(3-methoxyphenyl)piperidin-1-yl)methyl)-1H-1,2,3-triazol-1-yl)-2-phenylethanol]	–	++
O=C(Oc1cccc(C2CCN(Cc3cn(Cc4ccccn4)nn3)CC2)c1)[C@@H]1CCCN1 [Example 18, (S)-3-(1-((1-(pyridin-2-ylmethyl)-1H-1,2,3-triazol-4-yl)methyl)piperidin-4-yl)phenyl pyrrolidine-2-carboxylate]	> 6.30	–
N[C@@H](Cc1ccccc1)C(=O)Oc1cccc(C2CCN(Cc3cn(Cc4ccccn4)nn3)CC2)c1 [Example 19, (S)-3-(1-((1-(pyridin-2-ylmethyl)-1H-1,2,3-triazol-4-yl)methyl)piperidin-4-yl)phenyl 2-amino-3-phenylpropanoate]	> 6.30	–
NC1(C(=O)Oc2cccc(C3CCN(Cc4cn(Cc5ccccn5)nn4)CC3)c2)CCCCC1 [Example 20, 3-(1-((1-(pyridin-2-ylmethyl)-1H-1,2,3-triazol-4-yl)methyl)piperidin-4-yl)phenyl 1-aminocyclohexanecarboxylate]	≤ 6.30	–
